Columns and labels:
Carbonic anhydrase 9 = Carbonic anhydrase 9 (Homo sapiens, UniProt Q16790); assay: Inhibitory constant against human Carbonic anhydrase IX
Carbonic anhydrase 2 = Carbonic anhydrase 2 (Homo sapiens, UniProt P00918)
Description: Inhibitory constant against human Carbonic anhydrase II

Carbonic anhydrase 1 = Carbonic anhydrase 1 (Homo sapiens, UniProt P00915)
Carbonic anhydrase 1, sequence (P00915 whole entry): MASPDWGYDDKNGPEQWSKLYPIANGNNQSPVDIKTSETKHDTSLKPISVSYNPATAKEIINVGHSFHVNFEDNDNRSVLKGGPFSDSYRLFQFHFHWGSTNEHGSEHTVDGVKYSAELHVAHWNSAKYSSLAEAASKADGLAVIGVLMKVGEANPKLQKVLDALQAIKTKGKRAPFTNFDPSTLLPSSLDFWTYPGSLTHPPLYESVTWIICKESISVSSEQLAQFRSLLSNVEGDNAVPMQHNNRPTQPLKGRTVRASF

Row | SMILES | Ki (Carbonic anhydrase 9) | Ki (Carbonic anhydrase 2) | Ki (Carbonic anhydrase 1)
1 | O=C(Nc1nnc(S)s1)c1c(F)c(F)c(F)c(F)c1F | 312 µM | 129 µM | 308 µM
2 | CCCCn1c(S)nnc1-c1ccc(S(=O)(=O)c2ccccc2)cc1 |  | 604 µM | 415 µM
3 | CN(C)c1cccc2c(S(=O)(=O)Nc3nnc(S)s3)cccc12 | 296 µM |  | 
4 | O=C(Nc1nnc(S)s1)N(c1ccccc1)c1ccccc1 | 271 µM |  | 
5 | O=C(Nc1ccc(Cl)c(Cl)c1)Nc1nnc(S)s1 | 271 µM |  | 
6 | O=[N+]([O-])c1ccc(SNc2n[nH]c(=S)s2)cc1 | 256 µM |  | 
7 | O=C(O)c1cccnc1C(=O)Nc1nnc(S)s1 | 242 µM |  | 
8 | CCCn1c(-c2ccc(S(=O)(=O)c3ccc(Br)cc3)cc2)n[nH]c1=S | 772 µM | 382 µM | 508 µM
9 | O=C(Nc1nnc(S)s1)c1ccccn1 | 306 µM |  | 
10 | O=C(Nc1nnc(S)s1)NS(=O)(=O)Nc1nnc(S)s1 | 322 µM |  | 
11 | Cc1cccc(-n2c(-c3ccc(S(=O)(=O)c4ccc(Br)cc4)cc3)n[nH]c2=S)c1 | 320 µM | 301 µM | 254 µM
12 | O=[N+]([O-])c1ccccc1S(=O)(=O)Nc1n[nH]c(=S)s1 | 315 µM | 230 µM | 303 µM

Now from value to molecule:

Row | Ki (Carbonic anhydrase 9) | Ki (Carbonic anhydrase 2) | Ki (Carbonic anhydrase 1) | SMILES
13 | 11.5 µM |  |  | CCCCn1c(-c2ccc(S(=O)(=O)c3ccc(Br)cc3)cc2)n[nH]c1=S
14 | 9.3 µM |  |  | Nc1nnc(S)s1
15 | 9.8 µM | 618 µM | 548 µM | CCCn1c(-c2ccc(S(=O)(=O)c3ccc(Cl)cc3)cc2)n[nH]c1=S
16 | 9.5 µM | 8.8 µM | 4.5 µM | CC(=O)Nc1nnc(S)s1
17 | 60.4 µM | 251 µM | 249 µM | Cc1ccc(-n2c(-c3ccc(S(=O)(=O)c4ccc(Br)cc4)cc3)n[nH]c2=S)cc1
18 | 119 µM | 276 µM | 290 µM | CCCn1c(S)nnc1-c1ccc(S(=O)(=O)c2ccccc2)cc1
19 | 96.8 µM | 227 µM | 273 µM | CCCCn1c(-c2ccc(S(=O)(=O)c3ccc(Cl)cc3)cc2)n[nH]c1=S

— ChEMBL document CHEMBL1141925, “Carbonic anhydrase inhibitors. Inhibition of the cytosolic and tumor-associated carbonic anhydrase isozymes I, II, and IX with a series of 1,3,4-thiadiazole- and 1,2,4-triazole-thiols” (Bioorg Med Chem Lett, 2005)
